Results on 49 compounds are retold here after patent publication US7534805B2, “Imidazole derivatives, their preparation and their use as medicaments” (Societe de Conseils de Recherches Et d'Applications …, priority 2003, dated 2009).

Regarding `Brc1ccc(Oc2ccc(-c3c[nH]c(COc4ccccc4)n3)cc2)cc1.O=C(O)C(F)(F)F`, the melting point lay within 174 to 176 °C. The compound `Cl.c1ccc(OCc2nc(-c3ccc(OCCN4CCCCC4)cc3)c[nH]2)cc1` returned a melting point of 227 to 229 °C. Under `CN(C)CCOc1ccc(-c2c[nH]c(COc3ccccc3)n2)cc1.Cl` stands 206 to 208 °C. For the compound `O=C(O)C(F)(F)F.O=C(c1ccccc1)c1ccc(-c2c[nH]c(COc3ccccc3)n2)cc1`, the melting point was below 50 °C. With `O=C(Nc1ccc(F)cc1)c1ccc(-c2c[nH]c(COc3ccccc3)n2)cc1.O=C(O)C(F)(F)F` the figure was 198 to 200 °C; with `Cl.Nc1cccc(Oc2ccc(-c3c[nH]c(COc4ccccc4)n3)cc2)c1`, above 300 °C; with `Nc1ccc(Oc2ccc(-c3c[nH]c(COc4ccccc4)n3)cc2)cc1[N+](=O)[O-].O=C(O)C(F)(F)F`, 178 to 180 °C. On to `Cl.Nc1ccccc1Oc1ccc(-c2c[nH]c(COc3ccccc3)n2)cc1`, for which the melting point was in the range of 88 to 89 °C. With `Cl.NCc1ccc(Oc2ccc(-c3c[nH]c(COc4ccccc4)n3)cc2)cc1`, the melting point is above 300 °C. With `Cl.Clc1ccccc1Oc1ccc(-c2c[nH]c(COc3ccccc3)n2)cc1` the figure was 158 to 160 °C; with `Cl.NCC(=O)Nc1ccc(Oc2ccc(-c3c[nH]c(COc4ccccc4)n3)cc2)cc1`, above 250 °C; with `O=C(O)C(F)(F)F.c1ccc(OCc2nc(-c3ccc(Oc4ccccc4)cc3)c[nH]2)cc1`, 112 to 114 °C. With `c1ccc(SCc2nc(-c3ccc(-c4ccccc4)cc3)c[nH]2)cc1` [Example 2, 4-(1,1′-biphenyl-4-yl)-2-[(phenylthio)methyl]-1H-imidazole] the figure was 150 to 152 °C. Consider `c1ccc(OCc2nc(-c3ccc(-c4ccccc4)cc3)c[nH]2)cc1` [Example 3, 4-(1,1′-biphenyl-4-yl)-2-(phenoxymethyl)-1H-imidazole], for which the melting point lay in the range of 185 to 187 °C. Under `Fc1ccc(Oc2ccc(-c3c[nH]c(CSc4ccccc4)n3)cc2)cc1` [Example 4, 4-[4-(4-fluorophenoxy)phenyl]-2-[(phenylthio)methyl]-1H-imidazole] stands 108 to 110 °C. The compound `Fc1ccc(OCc2nc(-c3ccc(Oc4ccc(F)cc4)cc3)c[nH]2)cc1` [Example 5, 2-[(4-fluorophenoxy)methyl]-4-[4-(4-fluorophenoxy)phenyl]-1H-imidazole] displayed a melting point of 193 to 195 °C. `c1ccc(OCc2nc(-c3ccc(Sc4ccccc4)cc3)c[nH]2)cc1` [Example 6, 2-(phenoxymethyl)-4-[4-(phenylthio)phenyl]-1H-imidazole]: the melting point lay within 144 to 146 °C.

For `O=S(=O)(c1ccccc1)c1ccc(-c2c[nH]c(COc3ccccc3)n2)cc1` [Example 7, 2-(phenoxymethyl)-4-[4-(phenylsulphonyl)phenyl]-1H-imidazole], the melting point was 192 to 194 °C. `Fc1ccccc1COc1ccc(-c2c[nH]c(COc3ccccc3)n2)cc1` [Example 8, 4-{4-[(2-fluorobenzyl)oxy]phenyl}-2-(phenoxymethyl)-1H-imidazole]: the melting point was 182 to 183 °C.

Turning to `c1ccc(OCc2nc(-c3ccc(-n4ccnc4)cc3)c[nH]2)cc1` [Example 11, 4-[4-(1H-imidazol-1-yl)phenyl]-2-(phenoxymethyl)-1H-imidazole], the melting point fell in the range of 194 to 196 °C. For the compound `COc1ccc(Oc2ccc(-c3c[nH]c(COc4ccccc4)n3)cc2)cc1` [Example 12, 4-[4-(4-methoxyphenoxy)phenyl]-2-(phenoxymethyl)-1H-imidazole], the melting point lay in the range of 132 to 134 °C. `CCCCCCc1ccc(-c2c[nH]c(COc3ccccc3)n2)cc1` [Example 13, 4-(4-hexylphenyl)-2-(phenoxymethyl)-1H-imidazole] showed a melting point of 151 to 153 °C. In turn, `CCCCOc1ccc(-c2c[nH]c(COc3ccccc3)n2)cc1` [Example 14, 4-(4-butoxyphenyl)-2-(phenoxymethyl)-1H-imidazole] showed a melting point of 179 to 181 °C. `O=[N+]([O-])c1ccc(Oc2ccc(-c3c[nH]c(COc4ccccc4)n3)cc2)cc1` [Example 15, 4-[4-(4-nitrophenoxy)phenyl]-2-(phenoxymethyl)-1H-imidazole] yielded a melting point of 187 to 189 °C.

Compound `c1ccc(OCc2nc(-c3ccc(OCCN4CCOCC4)cc3)c[nH]2)cc1` [Example 16, 4-(2-{4-[2-(phenoxymethyl)-1H-imidazol-4-yl]phenoxy}ethyl) morpholine] displayed a melting point of 144 to 146 °C. As to `COCCOc1ccc(-c2c[nH]c(COc3ccccc3)n2)cc1` [Example 19, 4-[4-(2-methoxyethoxy)phenyl]-2-(phenoxymethyl)-1H-imidazole], the melting point lay within 159 to 161 °C. Under `FC(F)(F)CCCOc1ccc(-c2c[nH]c(COc3ccccc3)n2)cc1` [Example 20, 2-(phenoxymethyl)-4-[4-(4,4,4-trifluorobutoxy)phenyl]-1H-imidazole] stands 194 to 196 °C. As for `Cc1[nH]c(COc2ccccc2)nc1-c1ccc(Oc2ccc(F)cc2)cc1` [Example 21, 4-[4-(4-fluorophenoxy)phenyl]-5-methyl-2-(phenoxymethyl)-1H-imidazole], the melting point is below 40 °C. `O=C(Nc1ccc(-c2c[nH]c(COc3ccccc3)n2)cc1)c1ccc(F)cc1` [Example 22, 4-fluoro-N-{4-[2-(phenoxymethyl)-1H-imidazol-4-yl]phenyl}benzamide] gave a melting point of 224 to 225 °C. For `N#Cc1ccc(Oc2ccc(-c3c[nH]c(COc4ccccc4)n3)cc2)cc1` [Example 23, 4-{4-[2-(phenoxymethyl)-1H-imidazol-4-yl]phenoxy}benzonitrile], the melting point was in the range of 179 to 181 °C. Turning to `CCOC(=O)c1ccc(-c2c[nH]c(COc3ccccc3)n2)cc1` [Example 24, ethyl 4-[2-(phenoxymethyl)-1H-imidazol-4-yl]benzoate], the melting point is 133 to 135 °C.

Take `CCOC(=O)c1ccc(Oc2ccc(-c3c[nH]c(COc4ccccc4)n3)cc2)cc1` [Example 25, ethyl 4-{4-[2-(phenoxymethyl)-1H-imidazol-4-yl]phenoxy}benzoate]: the melting point lay within 100 to 102 °C. `CSc1ccc(Oc2ccc(-c3c[nH]c(COc4ccccc4)n3)cc2)cc1` [Example 26, 4-{4-[4-(methylthio)phenoxy]phenyl}-2-(phenoxymethyl)-1H-imidazole] came in with a melting point of 122 to 124 °C. As to `CS(=O)(=O)c1ccc(Oc2ccc(-c3c[nH]c(COc4ccccc4)n3)cc2)cc1` [Example 27, 4-{4-[4-(methylsulphonyl)phenoxy]phenyl}-2-(phenoxymethyl)-1H-imidazole], the melting point lay in the range of 143 to 145 °C.

`O=[N+]([O-])c1cccc(Oc2ccc(-c3c[nH]c(COc4ccccc4)n3)cc2)c1` [Example 31, 4-[4-(3-nitrophenoxy)phenyl]-2-(phenoxymethyl)-1H-imidazole] displayed a melting point of 140 to 142 °C.

In turn, `c1ccc(COc2ccc(Oc3ccc(-c4c[nH]c(COc5ccccc5)n4)cc3)cc2)cc1` [Example 33, 4-{4-[4-(benzyloxy)phenoxy]phenyl}-2-(phenoxymethyl)-1H-imidazole] gave a melting point of 134 to 136 °C. `Oc1ccc(Oc2ccc(-c3c[nH]c(COc4ccccc4)n3)cc2)cc1` [Example 34, 4-{4-[2-(phenoxymethyl)-1H-imidazol-4-yl]phenoxy}phenol] gave a melting point of 211 to 213 °C. The compound `Fc1cccc(Oc2ccc(-c3c[nH]c(COc4ccccc4)n3)cc2)c1` [Example 35, 4-[4-(3-fluorophenoxy)phenyl]-2-(phenoxymethyl)-1H-imidazole] registered a melting point of 177 to 179 °C. With `N#Cc1cccc(Oc2ccc(-c3c[nH]c(COc4ccccc4)n3)cc2)c1` [Example 39, 3-{4-[2-(phenoxymethyl)-1H-imidazol-4-yl]phenoxy}benzonitrile] the figure was 161 to 163 °C.

As to `O=[N+]([O-])c1ccccc1Oc1ccc(-c2c[nH]c(COc3ccccc3)n2)cc1` [Example 40, 4-[4-(2-nitrophenoxy)phenyl]-2-(phenoxymethyl)-1H-imidazole], the melting point was in the range of 128 to 129 °C. Take `Brc1cccc(Oc2ccc(-c3c[nH]c(COc4ccccc4)n3)cc2)c1` [Example 44, 4-[4-(3-bromophenoxy)phenyl]-2-(phenoxymethyl)-1H-imidazole]: the melting point was 133 to 135 °C. The compound `Clc1cccc(Oc2ccc(-c3c[nH]c(COc4ccccc4)n3)cc2)c1` [Example 46, 4-[4-(3-chlorophenoxy)phenyl]-2-(phenoxymethyl)-1H-imidazole] registered a melting point of 146 to 148 °C. With `Fc1cc(F)cc(Oc2ccc(-c3c[nH]c(COc4ccccc4)n3)cc2)c1` [Example 47, 4-[4-(3,5-difluorophenoxy)phenyl]-2-(phenoxymethyl)-1H-imidazole] the figure was 160 to 161 °C. `c1ccc(Cc2ccc(-c3c[nH]c(COc4ccccc4)n3)cc2)cc1` [Example 48, 4-(4-benzylphenyl)-2-(phenoxymethyl)-1H-imidazole] showed a melting point of 147 to 148 °C. Compound `Cc1cccc(Oc2ccc(-c3c[nH]c(COc4ccccc4)n3)cc2)c1` [Example 49, 4-[4-(3-methylphenoxy)phenyl]-2-(phenoxymethyl)-1H-imidazole] had a melting point of 160 to 162 °C. Regarding `Fc1ccccc1Oc1ccc(-c2c[nH]c(COc3ccccc3)n2)cc1` [Example 51, 4-[4-(2-fluorophenoxy)phenyl]-2-(phenoxymethyl)-1H-imidazole], the melting point is 154 to 156 °C. In turn, `Fc1ccc(Oc2ccc(-c3c[nH]c(COc4ccccc4)n3)cc2)cc1F` [Example 52, 4-[4-(3,4-difluorophenoxy)phenyl]-2-(phenoxymethyl)-1H-imidazole] gave a melting point of 188 to 190 °C.

Compound `Fc1ccc(F)c(Oc2ccc(-c3c[nH]c(COc4ccccc4)n3)cc2)c1` [Example 54, 4-[4-(2,5-difluorophenoxy)phenyl]-2-(phenoxymethyl)-1H-imidazole] came in with a melting point of 128 to 130 °C.

Compound `Fc1ccc(Oc2ccc(-c3c[nH]c(COc4ccccc4)n3)cc2)c(F)c1` [Example 55, 4-[4-(2,4-difluorophenoxy)phenyl]-2-(phenoxymethyl)-1H-imidazole] showed a melting point of 131 to 133 °C.

In general, melting point refers to the temperature, or range, at which the solid turns liquid.
